Source: the OPERA property sets (Mansouri et al. 2018)
Where a SMILES comes first, the peptide text is derived from it.

Row | SMILES | logP
1 | CCCCC(C#N)(Cn1cncn1)c1ccc(Cl)cc1 (centres undefined) | 2.94
2 | Clc1cc(Cl)c(-c2cc(Cl)c(Cl)c(Cl)c2)cc1Cl | 7.5
3 | Cc1nc([N+](=O)[O-])cn1C | -0.24
4 | CCN1CC(C(O)C(CC2CCCCC2)NC(=O)C(Cc2c[nH]cn2)NC(=O)C(Cc2ccc(OC)cc2)NC(=O)N(C)CCOCOC)OC1=O (centres undefined) | 2.3
5 | Nc1ccc2c(c1)C(=O)N(O)C2=O | 0.16
6 | O=C1CC(Sc2ccncc2)N1 (centres undefined) | 0.61
7 | CCCN1CC(NS(=O)(=O)N(CC)CC)C=C2c3cc(O)ccc3CCC21 (centres undefined) | 2.63
8 | CS(=O)(=O)CCOCn1ccnc1C=NO | -0.84
9 | N#CC(C#N)=NNc1ccccc1Br | 3.11
10 | COCC(O)Cn1cc([N+](=O)[O-])nn1 (centres undefined) | -0.36
11 | Clc1ccc(-c2cc(Cl)c(Cl)cc2Cl)c(Cl)c1 | 7.21
12 | C#CCOc1c(Cl)cc(NC=NOC(C)CC)cc1Cl (centres undefined) | 4.2
13 | CC12CCC(=O)C=C1CC(C#N)C1C2CCC2(C)C1CCC21CCC(=O)O1 (centres undefined) | 1.67
14 | CCOc1cccc(NC(=O)OCCN2CCOCC2)c1 | 2.5
15 | Cc1cc(Cl)ccc1Cl | 3.97
16 | C#CCOc1c(Cl)cc(NC=NOCc2ccccc2)cc1Cl | 4.2
17 | CCOC(=O)Oc1cccc(C2(C(=O)CC)CCN(C)CC2)c1 | 1.29
18 | CC1NC(=O)C(CC(=O)NC(Cc2cn(C(=O)OCc3ccccc3)c3ccccc23)C(=O)NC(Cc2ccccc2)C(=O)N(C)Cc2ccccc2)NC1=O (centres undefined) | 5.66
19 | Cc1ccc(Cl)cc1O | 2.63
20 | O=[N+]([O-])C=C1NCCN1Cc1ccccn1 | -0.87
21 | CCOC(=O)c1ccc(OCC(OC(=S)n2ccnc2)C(C)(C)C)cc1 (centres undefined) | 4.77
22 | C#CCOc1c(Cl)cc(NC=NOCC=C)cc1Cl | 3.7
23 | CC1(c2ccccc2)OC(=O)NC1=O (centres undefined) | 1.85
24 | COc1ccc(OCCO)cc1 | 1.13
25 | O=C(CCn1cnc([N+](=O)[O-])n1)NCCO | -1.32
26 | CC(=O)N(CCO)c1c(I)c(C(=O)NC(CO)CO)c(I)c(C(=O)NC(CO)CO)c1I | -2.33

Row | SMILES | logP
27 | CCN1CCN(C(=O)N[C@@H](C(=O)N[C@@H]2C(=O)N3[C@@H]2SC(C)(C)[C@@H]3C(=O)O)c2ccccc2)C(=O)C1=O | 0.5
28 | CCC1CC2C3CCC4=CC(=O)CCC4C3CCC2(C)C1C(=O)CF (centres undefined) | 4.66
29 | CCC(=O)C1(c2cccc(OC(C)=O)c2)CCN(C)CC1 | 1.05
30 | O=C(O)C(OCc1ccccc1)c1ccccc1 (centres undefined) | 2
31 | OC1CCN(CCCc2ccc(CSc3ccccc3)cc2)CC1 | 3.67
32 | Cc1ccc(CN2CCNC2=C[N+](=O)[O-])cn1 | -0.59
33 | Brc1ccc(Br)c(-c2cc(Br)c(Br)cc2Br)c1 | 7.1
34 | Cc1[nH]cnc1CSCCNc1cc(=O)cc[nH]1 | 0.8
35 | CCCOc1ccc(NC(=O)OCCN2CCOCC2)cc1 | 2.78
36 | CCCCCCNC(=O)C1(O)C(C)CC2C3CCC4=CC(=O)C=CC4(C)C3(F)C(O)CC21C (centres undefined) | 4.54
37 | Cc1n[nH]c(C(=O)NCc2ccccc2)c1[N+](=O)[O-] | 1.49
38 | NC(=O)c1cc(-c2ccccc2)nnc1NCCN1CCOCC1 | 1.86
39 | CCCCCCCOc1ccccc1NC(=O)OCCN1CCOCC1 | 4.51
40 | CC(=O)NC(CCC(=O)O)C(N)=O (centres undefined) | -2.47
41 | c1ccc(Cn2cccc2)cc1 | 2.71
42 | O=C(O)c1cc(Oc2cc(C(F)(F)F)ccc2Cl)ccc1[N+](=O)[O-] | 3.7
43 | COCC(F)Cn1cnc([N+](=O)[O-])n1 (centres undefined) | -0.04
44 | O=[N+]([O-])c1ncn[nH]1 | -0.33
45 | O=C(O)c1c(Br)cccc1Br | 3.58
46 | CCN(CC)C(=O)OCCCc1cccnc1 | 2.36
47 | CC(=O)Nc1ncnc2c1ncn2C1CC(O)C(CO)O1 (centres undefined) | -0.19
48 | C1CC2=NOS3=C2C(=NO3)C1 | 1.1
49 | CCCCNC(=O)c1n[nH]c(C)c1[N+](=O)[O-] | 1.27
50 | NC(=O)c1cc2ccccc2o1 | 1.54
51 | C#CCOc1c(Cl)cc(NC=NOCSC)cc1Cl | 3.6
52 | COC1=C(C)C(=O)c2c(c(COC(N)=O)c3n2CCC3OC(C)=O)C1=O (centres undefined) | 1.54

Row | SMILES | logP
53 | Nc1ccc(Oc2ccc(N)cc2)cc1 | 1.36
54 | CCN(CC)N=Nc1ccccc1C(N)=O | 2.96
55 | CC(C)OC(=O)c1cnc2n(c1=O)C(C)CCC2 (centres undefined) | 0.99
56 | CCOC(=O)Cn1ccnc1[N+](=O)[O-] | 0.33
57 | CON=C(C(=O)NC1C(=O)N2C(C(=O)OCOC(=O)C(C)(C)C)=CCSC12)c1csc(N)n1 (centres undefined) | 1.76
58 | COc1ccc(-n2ccc(=O)c(O)c2C)cc1 | 1.27
59 | FC(F)(F)c1ccccc1C1OCC2ON=C(c3ccccc3)C2CO1 (centres undefined) | 4.31
60 | NC(Cc1cccc2ccccc12)C(=O)O (centres undefined) | -0.22
61 | O=C(NN=Cc1ccco1)Nc1ccccc1 | 2.52
62 | CSCCC(NC(C)=O)C(=O)NC(C(N)=O)C(C)C (centres undefined) | -0.28
63 | CNC(=O)N(C)c1nnc(C(C)(C)C)s1 | 1.79
64 | CC1(C)CCCC(C)(C)N1[O] | 1.85
65 | CCN1C(=O)C(=O)c2c(C(N)=O)cccc2C1=O | -0.5
66 | COc1ccccc1SCc1ccccc1CCCN1CCC(O)CC1 | 3.58
67 | Cc1cn(C2CC(N=[N+]=[N-])C(COC(=O)CCNC(=O)C34CC5CC(CC(C5)C3)C4)O2)c(=O)[nH]c1=O (centres undefined) | 2.14
68 | O=[N+]([O-])c1cnc(C=Cc2ccccc2)n1CCO | 2.25
69 | CCC(C)C(NC(=O)C(CC(C)C)NC(C)=O)C(=O)NC(CCC(=O)O)C(N)=O (stereo not drawn) (Ac-Leu-Ile-Glu-NH2; configuration not given here) | 0.07
70 | c1ccc(Cn2ncnn2)cc1 | 1.03
71 | CC12CCC(=O)C=C1CCC1C2CCC2(C)C1CCC21CCC(=O)O1 (centres undefined) | 2.98
72 | CCC1(CC)OCC(c2ccc(NC(=O)N(C)C)cc2C)CO1 | 2.76
73 | CC12C=CC(=O)C=C1CCC1C2C(O)CC2(C)C1CCC2(O)C(=O)COC1OC(CO)C(OC2OC(CO)C(O)C(O)C2O)C(O)C1O (centres undefined) | -0.56
74 | Clc1cccc(-c2c(Cl)c(Cl)cc(Cl)c2Cl)c1Cl | 7.25
75 | CC(=O)NC(CC(C)C)C(=O)NC(CCCCN)C(=O)NC(Cc1ccccc1)C(N)=O (stereo not drawn) (Ac-Leu-Lys-Phe-NH2; configuration not given here) | 1.14
76 | Cc1cc(C)cc(Cl)c1 | 3.88
77 | OCCOc1ccc(Cl)cc1 | 1.99
78 | Nc1nc(Sc2ccc(Cl)cc2)nc(C(Cl)(Cl)Cl)n1 | 4.51

Row | SMILES | logP
79 | Nc1ncnc2c1ncn2C1OC(CO)CC1O (centres undefined) | -0.61
80 | C#CCOc1c(Cl)cc(NC=NOCOC)cc1Cl | 3.2
81 | C#CCOc1c(Cl)cc(NC=NOCC#N)cc1Cl | 3
82 | CCc1ncc([N+](=O)[O-])n1C | 0.68
83 | C#CCOc1c(Cl)cc(NC=NOCOCC)cc1Cl | 3.5
84 | NC1C2CCC1c1ccccc1C2 (centres undefined) | 1.63
85 | CC(=O)NC(Cc1ccccc1)C(=O)NC(CCC(=O)O)C(=O)NC(Cc1ccccc1)C(N)=O (stereo not drawn) (Ac-Phe-Glu-Phe-NH2; configuration not given here) | 0.65
86 | O=C(Cn1c(=O)sc2ccc(Cl)cc21)N1CCN(CCOS(=O)(=O)O)CC1 | -1.47
87 | CCN(CC)C(=O)COC(=O)C(C)c1ccc2cc(OC)ccc2c1 (centres undefined) | 3.32
88 | CC(C)(C)N(NC(=O)c1ccccc1F)C(=O)c1ccccc1Cl | 2.63
89 | O=C1NC(=O)N(Cc2ccccc2)C(=O)C1=O | 1.02
90 | Nc1ncc(Cc2ccccc2Cl)c(N)n1 | 2.24
91 | NC(=O)Cc1cccc2cccnc12 | 1.87
92 | CCN1C(=O)C(=O)c2c(OC)cc(OC)cc2C1=O | 1.23
93 | CCN(CC)C(=O)c1cccc2c1C(=O)C(=O)N(CC)C2=O | 0.78
94 | CCOC(=O)COC(=O)c1cc(Oc2ccc(C(F)(F)F)cc2Cl)ccc1[N+](=O)[O-] | 3.65
95 | COc1ccc(OCc2ccccc2CCCN2CCC(O)CC2)cc1 | 3.1
96 | Nc1ncc(Cc2cccc(Cl)c2Cl)c(N)n1 | 2.81
97 | COc1cc(O)cc(OC)c1O | 0.17
98 | CCCOc1ccc2ccc(=O)oc2c1 | 2.86
99 | Cc1ccc(OCc2ccccc2CCCN2CCC(O)CC2)cc1 | 3.5
100 | CNC(=NC#N)NCCSCc1ncn(COC(=O)C(C)(C)C)c1C | 1.81
101 | C#CCNC(=O)C1(O)C(C)CC2C3CCC4=CC(=O)C=CC4(C)C3(F)C(O)CC21C (centres undefined) | 2
102 | CNC(=C[N+](=O)[O-])NCCSCc1nccs1 | -0.15
103 | CN(C)C=Nc1ccn(C2OC(CO)C(O)C2O)c(=O)n1 (centres undefined) | -1.68
104 | CCCCN1C(=O)NC(=O)C(=O)C1=O | 0.81

Row | SMILES | logP
105 | COC1=CC2CCC(NC(C)=O)c3cc(=O)c(OC)ccc3C2C(OC)=C1O (centres undefined) | 0.47
106 | CC(=O)NC(CCCCN)C(=O)NC(Cc1ccccc1)C(N)=O (centres undefined) | 0.12
107 | COc1ccc(COC(C(=O)O)c2ccccc2)cc1Cl (centres undefined) | 2.45
108 | O=[N+]([O-])c1ccc2c(O)cccc2c1 | 3.5
109 | Nc1nc(Cl)nc2c1ncn2C1OC(CO)C(O)C1O (centres undefined) | -0.37
110 | CN1CCN(Cc2ccc(Cl)nc2)C1=N[N+](=O)[O-] | 0.26
111 | CCOc1ccccc1OCc1ccccc1CCCN1CCC(O)CC1 | 3.1
112 | C=Cc1ncc([N+](=O)[O-])n1C | 0.62
113 | CCC(=O)C(CS(=O)(=O)c1ccccc1)c1ccccc1 (centres undefined) | 1.82
114 | CC1(c2ccc(F)cc2)OC2CC3C4CCC5=CC(=O)CCC5C4CCC3(C)C2(C(=O)CO)O1 (centres undefined) | 4.92
115 | CC(=O)NC(CC(=O)O)C(=O)NC(Cc1ccccc1)C(=O)NC(CC(C)C)C(N)=O (stereo not drawn) (Ac-Asp-Phe-Leu-NH2; configuration not given here) | 0.4
116 | ClC(Cl)(Cl)c1nc(C(Cl)(Cl)Cl)nc(C(Cl)(Cl)Cl)n1 | 3.75
117 | CN1C=CCC1c1cccnc1 (centres undefined) | 1.47
118 | Clc1ccc(Cl)c(-c2cc(Cl)c(Cl)c(Cl)c2Cl)c1 | 7.19
119 | CNC(=O)OCc1ccc(Cl)cc1 | 2.42
120 | C#CCOc1c(Cl)cc(NC=NOCCCl)cc1Cl | 3.7
121 | CC(C)C(=O)Nc1cc(C(F)(F)F)ccc1S(N)(=O)=O | 2.45
122 | CN(C)c1ccc2c(c1)C(=O)N(OS(C)(=O)=O)C2=O | 1.65
123 | O=C(OCCCl)n1cc(F)c(=O)[nH]c1=O | 0.02
124 | Cc1cc([N+](=O)[O-])ccc1NN=C(C#N)C#N | 3.55
125 | O=[N+]([O-])c1nc(Br)[nH]c1Br | 2.82
126 | CCCCCCCC(=O)OC(C(=O)NC1C(=O)N2C(C(=O)O)=C(C)CSC12)c1ccccc1 (centres undefined) | 3.54
127 | O=c1nc(N=CN2CCCC2)ccn1C1CC(O)C(CO)O1 (centres undefined) | -1.02
128 | Nc1nc(NCCO)c(Cl)nc1[N+](=O)[O-] | 0.12
129 | Cc1ncc([N+](=O)[O-])n1CCOC(=O)N(C)C | 0.47
